The record followed here is patent US20250289814A1, “COMPOUNDS AS PARP1 INHIBITIORS” (NINGBO NEWBAY TECHNOLOGY DEVELOPMENT CO., LTD., priority 2022, published 2025).

For one data set, the system named is DLD1-BRCA2−/− cells. In words: Cell proliferation assay in DLD1-BRCA2−/− cell lines (CellTiter-Glo, 7 days). The class given is cell-based. How it is done: BRCA2 (−/−) cells cultured in RPMI 1640+10% FBS were harvested and diluted to a density of 1×10^4 cells/mL and 2×10^4 cells/mL, respectively. Cells (40 μL/well) were seeded into 384-well cell culture plates. Plates were covered and incubated at 37° C., 5% CO2 overnight prior to the addition of test compounds or vehicle. The plates were then incubated at 37° C., 5% CO2 for 7 days. On day 8, the plates were removed from incubator and equilibrated at room temperature for 15 minutes. CellTiter-Glo (40 μL, at 1:1 to culture medium) is added into each well and the plates were placed at room temperature for 30 min. Luminescence was measured using an Envision plate reader. The resultant data were analysed as follows; where LC is culture medium without cells:
% inhibition values for different test compound concentrations were calculated and fitted to a four parameter logistic plot in order to determine the IC50 value using XLfit

The nature of data set [1]: Caco2 (A-B/B-A) permeability. In kind it is in vitro ADME. The note with it: human; for efflux ratio at 120 min, 5 μM: Caco-2, pH 7.4, PappB-A/PappA-B, read-out: Caco2 efflux ratio (ER); for Papp A→B at 120 min, 5 μM: Caco-2, pH 7.4, apical-to-basolateral, read-out: Caco2 A-B apparent permeability (Papp); for Papp A→B at 120 min, 5 μM / Papp B→A at 120 min, 5 μM: HBSS pH 7.4, 120 min, 37° C.; for Papp B→A at 120 min, 5 μM: Caco-2, pH 7.4, basolateral-to-apical, read-out: Caco2 B-A apparent permeability (Papp). As for the experimental part:
The apical-to-basolateral (A-B) and basolateral-to-apical (B-A) transport of 5 μM test compounds in HBSS (10 mM HEPES, pH 7.4) was measured across Caco-2 cell monolayers (cells sourced from American Type Culture Collection, Manassas, Virgina). Duplicate incubations were performed at approximately 37° C. for 120 min, with functionality of the test system confirmed using 5 μM propranolol and digoxin as control compounds. Aliquots (50 μL) from both apical and basolateral wells were transferred into two fresh 96-well plates and quenched with acetonitrile solution containing analytical internal standards. Samples were vortexed mixed, centrifuged and a 100 μL aliquot of the resulting supernatant mixed with an equal volume of ultra-pure water prior to analysis by UPLC-MS/MS. The concentrations of test compound and control compounds in the incubation medium of donor and receiver compartments at the beginning and the end of the incubation period were used to calculate the apparent permeability (Papp) from A-B and B-A directions. The efflux ratio (ER) was expressed as PappB-A/PappA-B. The integrity of the cell monolayers after 2 hours incubation was confirmed using the marker reagent Lucifer yellow.

pIC50: −log10 of the molar value. Like-named read-outs stand apart in the source and are kept apart here. Bounds are passed on as bounds.

Take `CCc1cc2ncc([C@H](C)N3CC[C@@H](Oc4ccc(C(=O)NC)nc4)C3)cc2[nH]c1=O` (single isomer, unassigned) [Compound 12, 5-(((R)-1-((enantiomer 1 or 2)-1-(7-ethyl-6-oxo-5,6-dihydro-1,5-naphthyridin-3-yl)ethyl)pyrrolidin-3-yl)oxy)-N-methylpicolinamide]: in the data set on DLD1-BRCA2−/− cells (Homo sapiens, DLD-1, 168 h), the pIC50 is 7.65. Also, in data set [1], the efflux ratio at 120 min, 5 μM worked out at 10.3; the Papp A→B at 120 min, 5 μM was determined as 3.44 ×10⁻⁶ cm/s; the Papp B→A at 120 min, 5 μM turned out to be 35.5 ×10⁻⁶ cm/s.

In the data set on DLD1-BRCA2−/− cells (Homo sapiens, DLD-1, 168 h), `CCc1cc2ncc(CN3CC(Oc4ccc(C(=O)NC)nc4)C[C@@H]3C)cc2[nH]c1=O` (single isomer, unassigned) [Compound 22, 5-(((enantiomer 1 or 2, 5S)-1-((7-ethyl-6-oxo-5,6-dihydro-1,5-naphthyridin-3-yl)methyl)-5-methylpyrrolidin-3-yl)oxy)-N-methylpicolinamide] had a negative-log IC50 (pIC50) of under 6.00.

In the data set on DLD1-BRCA2−/− cells, `CCc1cc2ncc(CN3CC(Oc4ccc(C(=O)NC)nc4)C[C@@H]3C)cc2[nH]c1=O` (single isomer, unassigned) [Compound 23, 5-(((enantiomer 1 or 2, 5S)-1-((7-ethyl-6-oxo-5,6-dihydro-1,5-naphthyridin-3-yl)methyl)-5-methylpyrrolidin-3-yl)oxy)-N-methylpicolinamide] showed a pIC50 of under 6.00.

Compound `CCc1cc2ncc(CN3CC[C@@H](Cc4ccc(C(=O)NC)nc4)C3)cc2[nH]c1=O` (single isomer, unassigned) [Compound 25, (enantiomer 1 or 2)-5-((1-((7-ethyl-6-oxo-5,6-dihydro-1,5-naphthyridin-3-yl)methyl)pyrrolidin-3-yl)methyl)-N-methylpicolinamide] gave a pIC50 with DLD1-BRCA2−/− cells (Homo sapiens, DLD-1, 168 h) of 6.52.

In the data set with DLD1-BRCA2−/− cells, `CCc1cc2ncc(CN3CC[C@@H](Cc4ccc(C(=O)NC)nc4)C3)cc2[nH]c1=O` (single isomer, unassigned) [Compound 26, (enantiomer 1 or 2)-5-((1-((7-ethyl-6-oxo-5,6-dihydro-1,5-naphthyridin-3-yl)methyl)pyrrolidin-3-yl)methyl)-N-methylpicolinamide] gave a pIC50 of 6.72.

As to `CCc1cc2ncc(CN3CCC[C@@H](Oc4ccc(C(=O)NC)nc4)C3)cc2[nH]c1=O` (single isomer, unassigned) [Compound 32, (enantiomer 1 or 2)-5-((1-((7-ethyl-6-oxo-5,6-dihydro-1,5-naphthyridin-3-yl)methyl)piperidin-3-yl)oxy)-N-methylpicolinamide], in the data set on DLD1-BRCA2−/− cells (Homo sapiens, DLD-1, 168 h), the pIC50 is under 6.00.

`CCc1cc2ncc(CN3CCC[C@@H](Oc4ccc(C(=O)NC)nc4)C3)cc2[nH]c1=O` (single isomer, unassigned) [Compound 33, (enantiomer 1 or 2)-5-((1-((7-ethyl-6-oxo-5,6-dihydro-1,5-naphthyridin-3-yl)methyl)piperidin-3-yl)oxy)-N-methylpicolinamide]: the pIC50 with DLD1-BRCA2−/− cells was under 6.00.

Take `CCc1cc2ncc(CN3CC[C@@H](N(C)c4ccc(C(=O)NC)nc4)C3)cc2[nH]c1=O` (single isomer, unassigned; enantiomer 1) [Compound 16, (enantiomer 1)-5-((1-((7-ethyl-6-oxo-5,6-dihydro-1,5-naphthyridin-3-yl)methyl)pyrrolidin-3-yl)(methyl)amino)-N-methylpicolinamide]: the pIC50 in the data set on DLD1-BRCA2−/− cells was under 6.00.

On to `CCc1cc2ncc(CN3CC[C@@H](N(C)c4ccc(C(=O)NC)nc4)C3)cc2[nH]c1=O` (single isomer, unassigned; enantiomer 2) [Compound 17, (enantiomer 2)-5-((1-((7-ethyl-6-oxo-5,6-dihydro-1,5-naphthyridin-3-yl)methyl)pyrrolidin-3-yl)(methyl)amino)-N-methylpicolinamide], for which the pIC50 in the data set with DLD1-BRCA2−/− cells is 6.71. In data set [1], the efflux ratio at 120 min, 5 μM is 9.14; the Papp A→B at 120 min, 5 μM was found to be 3.64 ×10⁻⁶ cm/s; the Papp B→A at 120 min, 5 μM was 33.3 ×10⁻⁶ cm/s.

Regarding `CCc1cc2ncc(CN3CCC(Oc4ccc(C(=O)NC)nc4)C3)cc2[nH]c1=O` (stereo not shown) [Compound 9, 5-((1-((7-ethyl-6-oxo-5,6-dihydro-1,5-naphthyridin-3-yl)methyl)pyrrolidin-3-yl)oxy)-N-methylpicolinamide], the pIC50 in the data set on DLD1-BRCA2−/− cells (Homo sapiens, DLD-1, 168 h) was 7.84. For the same compound, in data set [1], the efflux ratio at 120 min, 5 μM stood at 10.3; the Papp A→B at 120 min, 5 μM worked out at 3.55 ×10⁻⁶ cm/s; the Papp B→A at 120 min, 5 μM came to 36.5 ×10⁻⁶ cm/s.

Compound `CCc1cc2ncc(CN3CC(Oc4ccc(C(=O)NC)nc4)C3C)cc2[nH]c1=O` (stereo not shown) [Compound 18, 5-((1-((7-ethyl-6-oxo-5,6-dihydro-1,5-naphthyridin-3-yl)methyl)-2-methylazetidin-3-yl)oxy)-N-methylpicolinamide] showed a pIC50 in the data set with DLD1-BRCA2−/− cells (Homo sapiens, DLD-1, 168 h) of under 6.00.

For `CCc1cc2ncc(CN3CC[C@@H](Oc4cnc(C(=O)NC)c(F)c4)C3)cc2[nH]c1=O` [Compound 27, (R)-5-((1-((7-ethyl-6-oxo-5,6-dihydro-1,5-naphthyridin-3-yl)methyl)pyrrolidin-3-yl)oxy)-3-fluoro-N-methylpicolinamide], the pIC50 in the data set with DLD1-BRCA2−/− cells (Homo sapiens, DLD-1, 168 h) was 6.45.

`CCc1cc2ncc(CN3CCC(N(C)c4ccc(C(=O)NC)nc4)CC3)cc2[nH]c1=O` [Compound 31, 5-((1-((7-ethyl-6-oxo-5,6-dihydro-1,5-naphthyridin-3-yl)methyl)piperidin-4-yl)(methyl)amino)-N-methylpicolinamide]: the pIC50 in the data set with DLD1-BRCA2−/− cells (Homo sapiens, DLD-1, 168 h) was under 6.00. Moreover, in data set [1], the efflux ratio at 120 min, 5 μM is 8.81; the apical-to-basolateral permeability (Papp A→B) at 120 min, 5 μM came out at 3.5 ×10⁻⁶ cm/s; the Papp B→A at 120 min, 5 μM was 30.9 ×10⁻⁶ cm/s.

As to `CCc1cc2ncc(CN3CCCN(c4ccc(C(=O)NC)nc4)CC3)cc2[nH]c1=O` [Compound 34, 5-(4-((7-ethyl-6-oxo-5,6-dihydro-1,5-naphthyridin-3-yl)methyl)-1,4-diazepan-1-yl)-N-methylpicolinamide], the pIC50 with DLD1-BRCA2−/− cells (Homo sapiens, DLD-1, 168 h) was under 6.00.

Turning to `CNC(=O)c1ccc(N2CCCN(Cc3cnc4cc(C)c(=O)[nH]c4c3)CC2)cn1` [Compound 35, N-methyl-5-(4-((7-methyl-6-oxo-5,6-dihydro-1,5-naphthyridin-3-yl)methyl)-1,4-diazepan-1-yl) picolinamide], the negative-log IC50 (pIC50) with DLD1-BRCA2−/− cells (Homo sapiens, DLD-1, 168 h) is under 6.00.

Consider `CCc1cc2ncc(CN3C4CC3CN(c3ccc(C(=O)NC)nc3)C4)cc2[nH]c1=O` [Compound 36, 5-(6-((7-ethyl-6-oxo-5,6-dihydro-1,5-naphthyridin-3-yl)methyl)-3,6-diazabicyclo [3.1.1]heptan-3-yl)-N-methylpicolinamide], for which, in the data set on DLD1-BRCA2−/− cells (Homo sapiens, DLD-1, 168 h), the pIC50 was under 6.00.

In the data set with DLD1-BRCA2−/− cells (Homo sapiens, DLD-1, 168 h), `CCc1cc2ncc(CN3CC4CC3CN4c3ccc(C(=O)NC)nc3)cc2[nH]c1=O` (stereo not shown) [Compound 37, 5-(5-((7-ethyl-6-oxo-5,6-dihydro-1,5-naphthyridin-3-yl)methyl)-2,5-diazabicyclo [2.2.1]heptan-2-yl)-N-methylpicolinamide] showed a pIC50 of under 6.00. Also, in data set [1], the efflux ratio at 120 min, 5 μM turned out to be 18.8; the Papp A→B at 120 min, 5 μM was determined as 1.61 ×10⁻⁶ cm/s; the Papp B→A at 120 min, 5 μM stood at 30.2 ×10⁻⁶ cm/s.

Consider `CCc1cc2ncc(CN3C4CCC3CN(c3ccc(C(=O)NC)nc3)C4)cc2[nH]c1=O` [Compound 38, 5-(8-((7-ethyl-6-oxo-5,6-dihydro-1,5-naphthyridin-3-yl)methyl)-3,8-diazabicyclo [3.2.1]octan-3-yl)-N-methylpicolinamide], for which the pIC50 in the data set with DLD1-BRCA2−/− cells (Homo sapiens, DLD-1, 168 h) was under 6.00.

`CCc1cc2ncc(CN3CC4CCC(C3)N4c3ccc(C(=O)NC)nc3)cc2[nH]c1=O` [Compound 39, 5-(3-((7-ethyl-6-oxo-5,6-dihydro-1,5-naphthyridin-3-yl)methyl)-3,8-diazabicyclo [3.2.1]octan-8-yl)-N-methylpicolinamide]: the negative logarithm of the IC50 (pIC50) in the data set on DLD1-BRCA2−/− cells (Homo sapiens, DLD-1, 168 h) is under 6.00.

`CCc1cc2ncc(CN3CC4CN(c5ccc(C(=O)NC)nc5)CC4C3)cc2[nH]c1=O` (stereo not shown) [Compound 40, 5-(5-((7-ethyl-6-oxo-5,6-dihydro-1,5-naphthyridin-3-yl)methyl)hexahydropyrrolo [3,4-c]pyrrol-2(1H)-yl)-N-methylpicolinamide] showed a pIC50 with DLD1-BRCA2−/− cells (Homo sapiens, DLD-1, 168 h) of 6.74. Further, in data set [1], the efflux ratio at 120 min, 5 μM came out at 8.32; the Papp A→B at 120 min, 5 μM was found to be 4.29 ×10⁻⁶ cm/s; the Papp B→A at 120 min, 5 μM was found to be 35.7 ×10⁻⁶ cm/s.

`CNC(=O)c1ccc(N2CC3CN(Cc4cnc5cc(C)c(=O)[nH]c5c4)CC3C2)cn1` (stereo not shown) [Compound 41, N-methyl-5-(5-((7-methyl-6-oxo-5,6-dihydro-1,5-naphthyridin-3-yl)methyl)hexahydropyrrolo[3,4-c]pyrrol-2(1H)-yl)picolinamide] showed a pIC50 in the data set with DLD1-BRCA2−/− cells (Homo sapiens, DLD-1, 168 h) of under 6.00.

For `CNC(=O)c1ccc(O[C@@H]2CCN(Cc3cnc4cc(C)c(=O)[nH]c4c3)C2)cn1` [Compound 59, (R)-N-methyl-5-((1-((7-methyl-6-oxo-5,6-dihydro-1,5-naphthyridin-3-yl)methyl)pyrrolidin-3-yl)oxy)picolinamide], the pIC50 in the data set on DLD1-BRCA2−/− cells (Homo sapiens, DLD-1, 168 h) was 6.67.
